Assay results: patent US12378521B2, “Method for enhancing production of genetically engineered autologous T cells” (AMGEN INC., priority 2020, dated 2025)

What was measured:
[1] = test system: T2 cells; experiment: Potency assay: cytotoxicity against peptide-pulsed T2 cells expressing Luciferase; type: cell-based; conditions: peptide 1 μM, E:T 1:1, 48 hours
Method: (§1) T2 cells expressing Luciferase were pulsed with the peptide recognized by the engineered TCR or with DMSO for 4 hours and the cells were washed before setting up a co-culture assay with 20,000 total T cells at a 1:1 (E:T) ratio. (A) 48 hours later, the luciferase signal was measured using the Steady Glo® Luciferase Assay System (Promega). Specific cytotoxicity was measured relative to the no peptide T2 cells cultured with the TCR T cells. (B) IFN-γ expression was measured using the AlphaLISA® detection kit (Perkin Elmer Waltham, MA) after 24 hours of co-culture. […] In addition, 24 hour accumulated release of IFN-γ was higher for T cells in non-2-DG media cross all concentration of peptide tested. […] Culture media containing 2-DG was used throughout the entire process (10 days).

[2] = test system: T cells; experiment: Leukocyte subsets in harvested T cells by immunophenotyping; type: cell-based, human; conditions: at harvest, both conditions
Method: Analysis of human B cells (CD19), monocytes (CD14), NK cells (CD56/16), NKT cells (CD3+CD56+), and T cells (CD3+Cd56−) were performed by immunophenotyping.

[3] = test system: apheresed donor cells; experiment: Growth and viability of cells expanded in media supplemented with 2-DG; type: cell-based, human
Method: A portion of the washed apheresed donor cells comprising 1.2E9 nucleated cells were transferred into two transfer bags under the Dilute program using Sepax C-Pro processing system with the same CS-600.1 Kit (a new kit was not used). Into one bag was added about 8 ml of Media 1 (OpTmizer™ complete media containing 300 IU/mL rhIL-2 (ThermoFisher) and 2 mM 2-Deoxy-D-glucose (2-DG) (MilliporeSigma, Burlington, MA)). Into the second bag was added about 8 ml of Media 2 (OpTmizer™ complete media containing 300 IU/mL rhIL-2 (ThermoFisher)). To each was added 7.5 ml Immunocult™ anti-CD3/CD28/[…] (25 μl/ml media with cells, Stemcell Technologies). The amount of activator was determined based on the culture volume of 300 ml that was used in the culture/activation step below. The bags were incubated for 1 hour at room temperature to allow for saturation of antibody binding.
A 2 L XURI® SP Perf Cellbag bioreactor (GE Healthcare) was connected to a XURI® Cell Expansion System W25 and 300 ml Media 1 was added and allowed to equilibrate at 37° C., 5% CO2, gas flow rate of 0.1 L/min, and a rocking rate of 6 rpm at a 6° angle. […]
On Day 1, the nucleated cells in each bag were counted and the amount of a lentiviral vector (comprising a polynucleotide encoding a TCR) corresponding to a MOI of 1 functional titer was diluted in 10 ml of Media 1 or Media 2 and placed in transfer bags. […]
On Day 2, about half the volume of the culture media in each bioreactor bag was exchanged using three 50 ml bag washouts through feed-line and waste-line. Cell counts were taken daily and viable cell density (VCD), viability, dissolved oxygen, metabolites were determined as described above. Cell phenotypes were determined for all samples tested. […]
Total viable cell density, viability, glucose and lactate measurements were taken each day. Phenotyping was determined on Days 3, 5 and 7. […]
Total viable cell density, viability, glucose and lactate measurements were taken each day. Phenotyping was determined on Days 9 and 14.

[4] = test system: T2 cells; experiment: IFN-γ expression after co-culture with T2 cells (AlphaLISA); type: cell-based; conditions: 24 hours co-culture, all peptide concentrations tested
Method: as §1

[5] = test system: T cells; experiment: CD25 expression by cells expanded in media with 2-DG; type: cell-based, human
Description: Even through CD25 expression by T cells in both conditions saturated at ±80%. T cells in 2-DG media retained CD25 better at Days[…] and 9 than the cells in the non-2-DG media. This may be due to the higher transgene expression and T cell yield for T cells generated in the 2-DG media.

[6] = test system: glycolysis; experiment: Glucose and lactate concentrations in culture (Cedex Bio Analyzer); type: cell-based, human
Method: Glucose and lactate were measured using Cedex Bio Analyzer (Roche, Indianapolis, IN). […] In addition, the effect of 2-DG was reversible as restoration of glucose (A) and lactate (B) levels was found after removal of 2-DG from the media from Day 7 to 14.

[7] = test system: T cells; experiment: T cell differentiation phenotyping (Tscm, Tcm, Tem) with 2-DG; type: cell-based, human
Method: Tscm, Tcm, Tem, and Tte subsets were analyzed by immunophenotyping based on their expression of CD45RA, CD45RO, CD95, and CCR7.
2-DG was added to culture medium between Days 0 and 7 and the feed medi was replaced with non-2-DG media (Media 1) from Days 7-14. […] The T cells continued differentiation after 2-DG was perfused out from culture media and ended at a similar level of differentiation as T cells in non-2-DG media (Media 1).
as §1

[8] = test system: T cells; experiment: Transgene expression of cells expanded in media with 2-DG; type: cell-based, human
Method: On Day 1, the nucleated cells in each bag were counted and the amount of a lentiviral vector (comprising a polynucleotide encoding a TCR) corresponding to a MOI of 1 functional titer was diluted in 10 ml of Media 1 or Media 2 and placed in transfer bags. The transfer bags were sterile welded on XURI® Cellbag feed-lines and the lentivirus was then transferred into each of the bioreactors via gravity flow. The cells were incubated at 37° C., 5% CO2, gas flow rate of 0.1 L/min, and a rocking rate of 2 rpm at a 2° angle, for 20-24 hours.
In contrast, transgene expression of T cell in non-2-DG media decreased to 44.4% at high cell density ([…]).

O=CC[C@@H](O)[C@H](O)[C@H](O)CO [2-DG, 2-deoxy-D-glucose]
T2 cell lysis versus T cells from non-2-DG media [1]: No significant difference
CD3+ cell purity [2]: above 98%
T cells yielded ([3]; 2 mM 2-DG media, 14 days, without 2-DG 25 billion): 35 billion T cells
Viability compared with non-2-DG media ([3]; Day 4 to Day 10): slightly higher viability
Overall viability ([3]; both media conditions): above 70%
24 hour accumulated release of IFN-γ versus non-2-DG media [4]: lower level of IFN-γ
CD25 expression in response to activation ([5]; 2-DG media, non-2-DG media 46%): 32%
CD25 expression at saturation ([5]; both conditions): ~80%
Glucose concentration in spent media compared to non-2-DG condition ([6]; 2-DG media (Media 1)): higher glucose concentration
Lactate concentration in spent media compared to non-2-DG condition ([6]; 2-DG media (Media 1)): higher lactate concentration
Effect on glucose and lactate levels after removal of 2-DG ([6]; 2-DG removed from media Day 7 to 14): reversible
collected Tscm and Tcm subsets ([7]; 2-DG throughout entire process (10 days), non-2-DG media 43%): 59%
Tscm subset ([7]; Day 5, non-2-DG media 14%): 26%
combined Tcm and Tscm ([7]; Day 7, non-2-DG media 56%): 86%
Transgene expression by T cells ([8]; 2-DG media, non-2-DG media 54%): 56%
Transgene expression at high cell density ([8]; cell density 35 billion cells/ml, non-2-DG media 44.4% at 25 billion cells/ml): 50.4%
